# Source: paper PMC7966987, “Insights into the catalytic properties of the mitochondrial rhomboid protease PARL” (The Journal of Biological Chemistry, 2021)
# How the values were obtained:
# human PARLΔ77 = assay: IQ-peptide substrate cleavage kinetics, PARLΔ77 in proteoliposomes; type: biochemical; conditions: for fold change Km/kcat, PARLΔ77/PARLΔ55 / fold change kcat, PARLΔ77/PARLΔ55: PARL in PLs; for turnover / proteolysis with PARLΔ77 compared with PARLΔ55: in PL
# Text: To assess the activity of recombinant PARL toward known substrates in a lipid bilayer, full-length and β-truncated PARL were reconstituted in proteoliposomes (PLs) using Escherichia coli lipids that closely resemble the composition of the IMM ([31]). We determined that the EDANS/Dabcyl - FRET tags prevented incorporation of the substrates into PL; however, the substrate could still be cleaved since the active site is proposed to be near the lipid/water interface ([40], [41]) analogous to bacterial rhomboid proteases (Fig. 1). To calculate the specific activity of the protease, we quantified the fraction of PARL in the PLs with an outward facing active site using a membrane […] activity-based TAMRA-labeled fluorophosphonate probe ([42]). […] These values were used to calculate specific activity of the PARL protease. Next, we compared cleavage of three IQ-peptide substrates by reconstituted full-length mature PARLΔ55 and the β-truncated form, PARLΔ77 (Fig. 3, Tables S5 and S6).
# (§1) Assays with FRET-PINK1^70–134 were conducted as previously described ([26]). For EDANS/Dabcyl 10-mer IQ peptides (PINK1, PGAM5, Smac/Diablo), lyophilized peptides were initially dissolved in DMSO to obtain a stock solution. The IQ peptide substrates in a concentration range of 0.1–70 μM were incubated with activity assay buffer (50 mM Tris-HCl pH 7.0, 150 mM NaCl, 10% glycerol, 0.1% DDM) in a 384-well black-bottomed plate at 37 °C for 30 min in a multiwell plate reader (SynergyMx, BioTek). For all concentrations of IQ peptide, the DMSO was kept constant at 5%. Following preincubation, PARL was added to a final concentration of 0.8 μM to initiate the cleavage reaction. Fluorescence readings were taken every 3 min over a 3 h time course at ƛex = 336 nm and ƛem = 490 nm. The initial velocity was determined from the fluorescence readings over the time course. For each substrate concentration, a no-enzyme control was subtracted to eliminate background fluorescence changes not related to substrate cleavage. Relative fluorescence units were converted to concentration (μM) by determining the maximum change in fluorescence observed for each substrate concentration when fully digested. GraphPad Prism software was used for Michaelis–Menten analysis of kinetic curves. All kinetic data were obtained using at least three biological replicates (different enzyme preparations) with technical duplicates for each experiment. For kinetic measurements in detergent with all three substrates, the activity assays were repeated at least five times. In addition, after each protease purification, the quality control of purified PARL was controlled by measuring its enzymatic activity. Minimum of three experimental replicates with two technical replicates were used for data analysis.
# (§2) E. coli polar lipids (Avanti), 400 μg in chloroform, were dried under nitrogen stream in a glass tube to yield a thin film of lipid. The tube was incubated overnight in a desiccator to completely remove all traces of solvent. In total, 50 μl of water and DDM detergent was added to the lipid film for resuspension at room temperature for 10 min, followed by the addition of purified PARL (400 μg) in 50 mM Tris-HCl, pH 8.0, 150 mM NaCl, 20% glycerol, 0.1% DDM, to yield the final weight ratio of 1 PARL:1 lipid:2 detergent. The detergent was slowly removed by the addition of SM2 Biobeads (Bio-Rad) while stirring on ice for 6 h to allow for the generation of proteoliposomes (PL); the process was controlled by the regimen of Biobead addition. To purify the PL, 50%:20% sucrose density gradient ultracentrifugation was used. A TAMRA probe (ThermoFisher) was used to determine the orientation of reconstituted PARL, which specifically and covalently labels serine residues of an enzymatically active serine protease. In total, 2 μM of TAMRA probe was added to PL samples and incubated for 1 h, allowing the TAMRA probe to label only the outward-facing accessible active sites. […]
# PARLΔ77 = target: T1, PARLΔ77 (Homo sapiens, UniProt Q9H300); assay: IQ-peptide substrate cleavage kinetics, PARLΔ77 in POPE/POPC proteoliposomes lacking CL; type: biochemical; conditions: pH 7.0, 37 °C, mean ± SEM, n=3
# T1 construct: GFP-hexahistidine (behind a TEV cleavage site) (C, cleaved yes); made in house; host or cells: Pichia pastoris
# T1 sequence (Q9H300 78-379): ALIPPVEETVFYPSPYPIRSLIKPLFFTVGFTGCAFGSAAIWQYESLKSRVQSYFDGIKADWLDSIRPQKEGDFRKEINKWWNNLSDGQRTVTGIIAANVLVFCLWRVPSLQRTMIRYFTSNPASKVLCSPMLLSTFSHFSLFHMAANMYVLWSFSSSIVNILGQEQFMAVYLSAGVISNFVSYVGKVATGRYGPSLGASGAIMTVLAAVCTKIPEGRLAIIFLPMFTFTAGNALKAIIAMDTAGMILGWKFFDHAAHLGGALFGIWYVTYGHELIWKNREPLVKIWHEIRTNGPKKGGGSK
# Text: To examine if CL influences PARL activity in a membrane environment, we prepared PL samples containing β-truncated PARL and conducted detailed kinetic analysis with the three IQ-peptide substrates (Fig. 3B). Two independent PL samples were generated: the first consisted only of POPC and POPE, while the second also contained CL. […] When CL was omitted from the PL, we observed two to tenfold slower turnover rates of cleavage for IQ-peptide substrates by β-truncated PARL (Fig. 3B and Table S7).
# as §1
# as §2, with “sites. The same amount of PL, but with 1% DDM added to dissolve lipid vesicles incubated with 2 μM of TAMRA probe at the same conditions, was used as a benchmark for 100% accessible protein amount. The reaction was quenched with addition of SDS-containing sample buffer and the protein samples were visualized with SDS-PAGE followed by fluorescent gel scanning. The bands were quantified by densitometry analysis.” for “sites.”
Substance,"fold change Km/kcat, PARLΔ77/PARLΔ55 (human PARLΔ77) [fold]","fold change kcat, PARLΔ77/PARLΔ55 (human PARLΔ77) [fold]",Km (PARLΔ77) [µM],kcat (turnover rate) (PARLΔ77) [s⁻¹],kcat/KM (catalytic efficiency) (PARLΔ77) [M⁻¹ s⁻¹],turnover / proteolysis with PARLΔ77 compared with PARLΔ55 (human PARLΔ77; listed as IQ-Smac/Diablo),turnover / proteolysis with PARLΔ77 compared with PARLΔ55 (human PARLΔ77; listed as Smac/Diablo)
"(DABCYL)-AVFLAFGLGL-Glu(EDANS) [IQ-PINK1^99–108, internally quenched DABCYL/EDANS peptide substrate based on PINK1 PARL cleavage site]",5,3,14 ± 5,0.0019 ± 0.00028,140 ± 56,–,–
"(DABCYL)-AVFLSAVAVG-Glu(EDANS) [IQ-PGAM5^20–29, internally quenched DABCYL/EDANS peptide substrate based on PGAM5 PARL cleavage site]",7,4,8 ± 3,0.0025 ± 0.00056,278 ± 83,–,–
"(DABCYL)-GVT LCAVPIA-Glu(EDANS) [IQ-Smac/Diablo^51–60, internally quenched DABCYL/EDANS peptide substrate based on Smac/Diablo PARL cleavage site]",2,10,3.8 ± 1,0.00133 ± 8.3e-05,333 ± 83,increase in proteolysis,significantly enhanced
